According to PubChem BioAssay (NCI):
Several values for one entry are separate records, joined by “and”; a condition that tells them apart may be missing. Identical values can stand only once.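 All cell lines were grown in 96-well plates and treated with compound for 48 hours. Abbreviation: GI50, concentration required for 50% inhibition of growth. TGI marks complete inhibition of growth.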

Columns and labels:
Test in all cases: inhibition of tumour cell growth, NCI panel, 48 h
[1] = test system: COLO 205 colon
[2] = test system: EKVX NSCLC
[3] = test system: HCC-2998 colon
[4] = test system: HOP-62 NSCLC
[5] = test system: MOLT-4 leukemia
[6] = test system: NCI-H522 lung
[7] = test system: RXF 393 renal
[8] = test system: SF-268 CNS
[9] = test system: SK-MEL-2 melanoma
[10] = test system: HOP-92 NSCLC

SMILES	GI50 [1]	TGI [1]	GI50 [2]	TGI [2]	GI50 [3]	TGI [3]	GI50 [4]	TGI [4]	GI50 [5]	TGI [5]	GI50 [6]	TGI [6]	GI50 [7]	TGI [7]	GI50 [8]	TGI [8]	GI50 [9]	TGI [9]	GI50 [10]	TGI [10]
CCOC(=O)c1cc2c(cc1Cl)SC(=Nc1ccccc1)N(S(=O)(=O)c1ccc(Cl)cc1)S2(=O)=O	9.06 µM	> 100 µM	16.6 µM	31.8 µM	13.5 µM	27.9 µM	16 µM	32.6 µM	11.7 µM	37.3 µM	15.5 µM	42.8 µM	11.3 µM	36.1 µM	12.1 µM	32 µM	12.1 µM	30.4 µM		
CC1=C(c2ccccc2)C(O)(c2ccccc2)C(C)C1=O (stereo not drawn)	25.1 µM	> 100 µM	35.1 µM	> 100 µM			11.6 µM	> 100 µM	21.6 µM	> 100 µM			17.4 µM	> 100 µM	27.4 µM	> 100 µM	29.7 µM	> 100 µM	4.07 µM	65 µM
CCC(C)Nc1ccc(N)cc1 (stereo not drawn)	1.72 µM	3.19 µM	3.47 µM	14.8 µM	4.39 µM	16.1 µM	4.14 µM	14.9 µM	4.29 µM	12.4 µM	3.07 µM	9.07 µM	4.62 µM	15.8 µM	5.61 µM	19.2 µM	3.21 µM	8.61 µM		
Nc1nc([Se])c2ncn(C3OC(CO)C(O)C3O)c2n1 (stereo not drawn)	19.3 µM	72.5 µM	37.6 µM	> 100 µM	17.9 µM	> 100 µM	3.73 µM	> 100 µM	3.4 µM	> 100 µM	42.5 µM	> 100 µM	> 100 µM	> 100 µM	9.27 µM	> 100 µM	59.8 µM	> 100 µM		
C[CH2][Ge]([CH2]C)([CH2]C)[O]C(=O)C(OC(C)=O)c1ccccc1 (stereo not drawn)	> 100 µM	> 100 µM	38.3 µM	> 100 µM	> 100 µM	> 100 µM	> 100 µM	> 100 µM			> 100 µM	> 100 µM			> 100 µM	> 100 µM			57.9 µM	> 100 µM
COC(=O)N/N=C(\C)c1c(O)cc(C)oc1=O				> 100 µM		> 100 µM		> 100 µM		> 100 µM						> 100 µM		> 100 µM		> 100 µM
COc1ccc2c3c([nH]c2c1[N+](=O)[O-])C(C)N(Cc1ccccc1)CC3 (stereo not drawn)		> 100 µM		> 100 µM		> 100 µM		7.12 µM		23.4 µM				17.9 µM		5.83 µM		> 100 µM		
Cc1ccc(S(=O)(=O)SC(C)(C)C)cc1		> 92.5 µM		> 63.9 µM		> 58.7 µM		> 100 µM		41.5 µM		32.3 µM				> 100 µM		> 88.3 µM		> 100 µM
Cc1cc2c(cc1Cl)S/C(=C/C(=O)O)C(Nc1ccc3ncsc3c1)=NS2(=O)=O	> 26.7 µM	> 33.9 µM	> 16.9 µM	> 52.8 µM			17 µM	> 42.9 µM	5.5 µM	> 26.8 µM	13 µM	> 67.6 µM	19.8 µM	> 100 µM	> 23.9 µM	> 74.9 µM	> 29.3 µM	> 61.3 µM	7.76 µM	21.5 µM
C[C@]12CC[C@H]3[C@@H](CC=C4C[C@@H](N5CCCC5)CC[C@@]43C)[C@@H]1C/C(=C\c1cccc(OCCN3CCOCC3)c1)[C@@H]2O	3.89 µM	39.3 µM	8.02 µM	> 100 µM			2.76 µM	9.83 µM			8.21 µM	29.7 µM	1.76 µM	3.82 µM	13.3 µM	> 100 µM	14.1 µM	31.8 µM		
CC(C)(C)C1CCC2c3c([nH]c4ccccc34)C3C(=O)N(c4ccc(Cl)cc4)C(=O)C3C2C1 (stereo not drawn)	49.9 µM and > 10 µM	> 100 µM	63.9 µM and > 10 µM	> 100 µM	22.1 µM and > 10 µM	81.6 µM and > 10 µM	> 100 µM	> 100 µM	23.6 µM and > 10 µM	50.6 µM and > 10 µM	60.8 µM and > 10 µM	> 100 µM	48.5 µM and > 10 µM	> 100 µM	53.9 µM and > 10 µM	> 100 µM		> 10 µM		
CN(c1ccc(C(=O)c2ccc(N(C)S(C)(=O)=O)cc2)cc1)S(C)(=O)=O		> 100 µM		> 100 µM						> 100 µM		> 100 µM				> 100 µM		> 100 µM		> 100 µM
COc1ccc2c(c1)[nH]c(=O)c1c3cccc(F)c3cn21	0.0388 µM	1.11 µM	1.27 µM	> 100 µM	0.143 µM	0.822 µM	0.641 µM	51.3 µM	0.0425 µM	14.6 µM	0.0756 µM	> 35.5 µM	0.0375 µM	34.1 µM	0.0749 µM	44.7 µM	0.469 µM	> 100 µM		
O=S(=O)(O)c1cc(O)c(N=Nc2ccc(O)cc2O)c2ccccc12		> 100 µM		> 100 µM				> 100 µM		> 100 µM		95.4 µM		> 100 µM		> 100 µM		> 100 µM		> 100 µM
COc1ccc2c(c1)nc(C(=O)c1ccco1)c(C(F)(F)F)[n+]2[O-]	> 100 µM	> 100 µM	> 100 µM	> 100 µM	> 100 µM	> 100 µM	> 100 µM	> 100 µM	> 100 µM	> 100 µM	> 100 µM	> 100 µM	47.5 µM	> 100 µM	83.8 µM	> 100 µM	> 100 µM	> 100 µM		
O=C(O)[C@H](NS(=O)(=O)c1ccc(F)cc1)c1ccccc1		> 100 µM		> 100 µM		> 100 µM		> 100 µM		> 100 µM		> 100 µM		> 100 µM		> 100 µM		> 100 µM		
